Measured values: patent US11136291B2, “Antifungal compounds and uses thereof” (Dana-Farber Cancer Institute, Inc., priority 2016, dated 2021)
“Also recorded” adds a separate entry of the source.

Experiments:
[1] = tested on: PDRE-dependent luciferase gene transcription; assay type: cell-based, Saccharomyces cerevisiae; conditions: 40 μM ketoconazole
[2] = tested on: C. glabrata CgPDR1 wild-type and gain-of-function mutant strains; assay: Spot plating on gradient plates with azole; assay type: cell-based, Candida glabrata
[3] = tested on: azole-activated and Pdr1-dependent genes; assay: RNA-Seq; conditions: 10 μM iKIX1 with 40 μM ketoconazole
Method: Cells were grown in YPD at 30° C. with shaking overnight (24 hours) then washed twice in 2× volume of Milli-Q water before being resuspended in YP to an OD600 of 0.8. Cells were grown with shaking overnight (˜16 hours) before splitting and treatment with vehicle (DMSO) or 10 μM iKIX1. Cells were grown with shaking another 8 hours before harvest of non-azole induced samples. Remaining cultures were induced to a final concentration of 40 μM ketoconazole and harvested after 15 minutes by centrifugation at 4,000 rpm for 4 minutes at 4° C. Media was aspirated and cells were snap frozen on dry ice. RNA isolation was performed as previously described (see, e.g., Martin R, Moran G P, Jacobsen I D, Heyken A, Domey J, Sullivan D J, et al. The Candida albicans-specific gene EED1 encodes a key regulator of hyphal extension. PLoS One.6(4):e18394. PMCID: 3075580); RNA was then DNase treated using recombinant DNasel. […] Sequencing was carried out on Illumina HiSeq 2500, resulting in approximately 17.68 million of 50 bp paired-end reads per sample. STAR aligner was used to map sequencing reads to transcripts in the reference genomes (S288C for Saccharomyces cerevisiae and draft genome from isolate DSY562 for Candida glabrata) (see, e.g., Dobin A, Davis C A, Schlesinger F, Drenkow J, Zaleski C, Jha S, et al. STAR: ultrafast universal RNA-seq aligner. Bioinformatics.29(1):15-21. PMCID: 3530905). […]

## N#CCC(=O)NNC(=S)Nc1ccc(Cl)c(Cl)c1 [iKIX1, 2-(2-Cyanoacetyl)-N-(3,4-dichlorophenyl)hydrazinecarbothioamide]
[1]
  ketoconazole-induced luciferase activity (in words): able to block this induction in a concentration-dependent manner; also recorded: inhibits ketoconazole (KET)-induced upregulation of luciferase activity in a dose-responsive manner
[2]; CgPDR1 gain-of-function mutant strains, compound gradient with fluconazole or ketoconazole
  azole sensitivity of growth on gradient plates: restored azole-sensitivity to PDR1 gain-of-function mutant strains in a concentration-dependent manner
[2]; CgPDR1 wild-type strains, iKIX1 with azole vs single agents
  growth inhibition on gradient plates: increased growth inhibition
[3]
  expression of azole-activated and Pdr1-dependent genes: strongly blunted expression of many azole-activated and Pdr1-dependent genes
